Measured values reported in PMC6100582 (Molecules : A Journal of Synthetic Chemistry and Natural …, 2018).
pEC50, pIC50: −log10 of the molar value. In brackets after ≈: the same amount, converted by molar mass. Read-outs that look alike come from different tables or passages of the source.

Tests used:
Reovirus-1 = assay: Antiviral activity in Vero cell cultures; assay type: cell-based; conditions: Vero cells
Punta Toro Virus = assay: microbe, parasite or virus in culture; assay type: cell-based; conditions: Vero cells
in vitro = conditions: African green monkey
[1] = test system: panel of nine different human cancer cell lines; assay: Cytostatic activity, panel of nine human cancer cell lines; assay type: cell-based; conditions: all nine tested cell lines, read-out: IC50 (range over all tested cell lines)
Method: To gain insight into cytotoxicity of newly synthesized compounds 4a–f and 5a–f, their cytostatic activity was evaluated in vitro against a panel of nine different human cancer cell lines, representing various solid tumor types including pancreatic adenocarcinoma (Capan-1), chronic myeloid leukemia (Hap1), colorectal carcinoma (HCT-116), lung carcinoma (NCI-H460), acute lymphoblastic leukemia (DND-41), acute myeloid leukemia (HL-60), chronic myeloid leukemia (K-562), multiple myeloma (MM.1S) and non-Hodgkin lymphoma (Z-138).
Cytostatic activity was evaluated in vitro on nine different types of human tumor cell lines: Capan-1, Hap1, HCT-116, and NCI-H460, as well as hematological tumors such as DND-41, HL-60, K-562, MM.1S and Z-138 as described previously. All human tumor cell lines were acquired from the American Type Culture Collection (ATCC, Manassas, VA, USA), except for the DND-41 cell line which was purchased from the Deutsche Sammlung von Mikroorganismen und Zellkulturen (DSMZ Leibniz-Institut, Braunschweig, Germany) and the Hap1 cell line which was purchased from Horizon Discovery (Waterbeach, UK). […] The plates were incubated and monitored at 37 °C for 72 h in an IncuCyte (Essen BioScience Inc., Ann Arbor, MI, USA) for real-time imaging. […]

[2] = test system: Mycobacterium tuberculosis H37Ra; assay: Antimycobacterial susceptibility assay (MIC determination); assay type: cell-based; conditions: 168 h, 7 days, 37 °C, alamarBlue
Method: At log phase growth, a culture sample (10 mL) was centrifuged at 15,000 rpm/20 min using a bench-top centrifuge (MPW-65R, MPW Med Instruments, Poland). Following removal of the supernatant, the pellet was washed in fresh Middlebrook 7H9GC broth and re-suspended in fresh, ODAC-supplemented MB (10 mL). The turbidity was adjusted to match McFarland standard No. 1 (3 × 10^8 CFU) with MB broth. A further 1:20 dilution of the culture was then performed in MB broth. The antimicrobial susceptibility of M. tuberculosis was investigated in a 96-well plate format. In these experiments, sterile deionised water (300 µl) was added to all outer-perimeter wells of the plates to minimize evaporation of the medium in the test wells during incubation. Each evaluated compound (100 µL) was incubated with M. tuberculosis (100 µl). Dilutions of each compound were prepared in duplicate. For all synthesized compounds, final concentrations ranged from 1000 μg/mL to 8 μg/mL. All compounds were dissolved in DMSO, and subsequent dilutions were made in supplemented MB. […] Following incubation, 10% of alamarBlue (Difco, Lawrence, KS, USA) was mixed into each well, and readings at 570 nm and 600 nm were taken, initially for background subtraction and subsequently after 24 h reincubation. […] For non-interfering compounds, a blue colour in the well was interpreted as the absence of growth, and a pink colour was scored as growth.

Vero cell cultures = conditions: Vero cells, microscopically detectable alteration of cell morphology; unit not printed in head (EC50 columns µM)
[3] = test system: broad variety of viral infections; assay: Antiviral evaluation, broad variety of viruses; assay type: cell-based; conditions: Vero cells; for pEC50: reovirus-1, sindbis virus and Punta Toro virus, read-out: EC50 (range over viruses)
[4] = test system: panel of bacteria, Mycobacterium strains and fungi; assay: Antimicrobial screening, panel of bacteria, Mycobacterium strains and fungi; assay type: cell-based; conditions: S. aureus, S. pneumoniae, A. baumannii and C. albicans ATCC 90028
[5] = MTS, read-out: EC50 Reovirus-1, MTS
[6] = MTS, read-out: EC50 Punta Toro Virus, MTS
[7] = visual CPE score, read-out: EC50 Reovirus-1, Visual CPE Score
[8] = visual CPE score, read-out: EC50 Punta Toro Virus, Visual CPE Score

| Structure (SMILES) | pEC50 (Reovirus-1; [5]) | pEC50 (Punta Toro Virus; [6]) | CC50 (in vitro) [µg/mL] | pIC50 [1] | MIC [2] [µg/mL] | pEC50 (Reovirus-1; [7]) | pEC50 (Punta Toro Virus; [8]) | Cytotoxicity MCC (minimum cytotoxic concentration) (Vero cell cultures) | selectivity index (SI), MCC and EC50 ratio [3] | pEC50 [3] | MIC values (range over strains) [4] [µg/mL] |
| --- | --- | --- | --- | --- | --- | --- | --- | --- | --- | --- | --- |
| COc1cc(NC(C)CCCNC(=O)/C=C/C(=O)Nc2cccc(F)c2)c2ncccc2c1 (stereo not drawn) [Compound 4a, (2E)-N-(3-Fluorophenyl)-N′-{4-[(6-methoxyquinolin-8-yl)amino]pentyl}but-2-enediamide] | < 4.30 | < 4.30 | 46.9 (≈ 104 µM) | 4.51 to 5.24 | 128 (≈ 284 µM) |  |  |  |  |  |  |
| COc1cc(NC(C)CCCNC(=O)/C=C/C(=O)Nc2ccc(F)cc2)c2ncccc2c1 (stereo not drawn) [Compound 4b, (2E)-N-(4-Fluorophenyl)-N′-{4-[(6-methoxyquinolin-8-yl)amino]pentyl}but-2-enediamide] | < 4.30 | < 4.30 | > 50 |  | 32 (≈ 71 µM) |  |  |  |  |  |  |
| COc1cc(NC(C)CCCNC(=O)/C=C/C(=O)Nc2cccc(Cl)c2)c2ncccc2c1 (stereo not drawn) [Compound 4c, (2E)-N-(3-Chlorophenyl)-N′-{4-[(6-methoxyquinolin-8-yl)amino]pentyl}but-2-enediamide] | 5.42 | 5.26 | > 50 |  | 128 (≈ 274 µM) | < 4.30 | < 4.30 | 10 | 1.8–3.7 | 5.26 to 5.51 |  |
| COc1cc(NC(C)CCCNC(=O)/C=C/C(=O)Nc2ccc(Cl)cc2)c2ncccc2c1 (stereo not drawn) [Compound 4d, (2E)-N-(4-Chlorophenyl)-N′-{4-[(6-methoxyquinolin-8-yl)amino]pentyl}but-2-enediamide] | < 4.30 | < 4.30 | > 50 |  | 128 (≈ 274 µM) |  |  |  |  |  | 6.1 to 12.5 |
| COc1cc(NC(C)CCCNC(=O)/C=C/C(=O)Nc2cccc(C(F)(F)F)c2)c2ncccc2c1 (stereo not drawn) [Compound 4e, (2E)-N′-{4-[(6-Methoxyquinolin-8-yl)amino]pentyl}-N-[3-(trifluoromethyl)phenyl]but-2-enediamide] | 5.51 | 5.27 | > 50 |  | 128 (≈ 256 µM) | < 4.30 | < 4.30 | 10 | 1.8–3.7 | 5.26 to 5.51 |  |
| COc1cc(NC(C)CCCNC(=O)/C=C/C(=O)Nc2ccc(C(F)(F)F)cc2)c2ncccc2c1 (stereo not drawn) [Compound 4f, (2E)-N′-{4-[(6-Methoxyquinolin-8-yl)amino]pentyl}-N-[4-(trifluoromethyl)phenyl]but-2-enediamide] | < 4.30 | < 4.30 | > 50 |  | 64 (≈ 128 µM) |  |  |  |  |  |  |
